Data set [1] deals with SARS-CoV-2. Also noted: method as in PMID 32272481. Conditions: cited from earlier work.
For data set [2], the system named is SARS-CoV-2 main protease (M^pro or 3CL^pro). Conditions: cited from earlier work.
The test system of data set [3] is SARS-CoV-2. As to conditions: for Inhibition of the virus-caused cytopathic effect (CPE): 2 days. (Damage to the host cells serves as the signal in cytopathic effect assays.)
The next data set relates to Vero cells. Kind of data set: XTT cell viability assay. As to conditions: quercetin 500–100 µM; 2d 100–10 µM; Figure S2. It counts as cell-based, Cercopithecus aethiops. How it is done: Cell viability was evaluated using the XTT Cell Viability Assay kit (Biological Industries, Cromwell, CT, USA) according to the manufacturer’s protocol. Vero, A549ACE2+, CRFK, HRT-18, LLC-MK2, and HSF cells were cultured on 96-well plates. Cells were incubated with ACF for 24 h at 37 °C in an atmosphere containing 5% CO2. After incubation, the medium was discarded and 100 µL of fresh medium was added to each well. Then, 25 µL of the activated 2,3-bis-(2-methoxy-4-nitro-5-sulphenyl)-(2H)-tetrazolium-5-carboxanilide (XTT) solution was added and samples were incubated for 2 h at 37 °C. The absorbance (λ = 450 nm) was measured using a Spectra MAX 250 spectrophotometer (Molecular Devices, San Jose, CA, USA). The obtained results were normalized to the control samples, where cell viability was set to 100%.
In general terms: Tetrazolium assays rely on reduction of a dye to a coloured formazan, in cell work by metabolically active cells.

Data set [4] deals with SARS-CoV-2. Kind of data set: Inhibition of SARS-CoV-2 replication in Vero cells by RT-qPCR. The class given is cell-based. Conditions: for IC50: Severe acute respiratory syndrome coronavirus 2, Vero, 48 h, read-out: IC50 of SARS-CoV-2 replication (RT-qPCR); for logIC50 of SARS-CoV-2 replication (RT-qPCR): log of concentration in µM, Figure S4. Background: In qPCR the cycle at which signal appears reflects the starting amount.

The target in data set [5] is T1, SARS-CoV-2 M^pro (Severe acute respiratory syndrome coronavirus 2, UniProt P0DTD1). Kind of data set: Reversibility test of M^pro interaction (SEC/dialysis, then activity and near-UV CD). As to conditions: M^pro 24 μM incubated with compound 200 μM, 30 min, 25 °C, then SEC or dialysis. It counts as biochemical.
The target in data set [6] is T1, SARS-CoV-2 M^pro. Kind of data set: SARS-CoV-2 M^pro inhibition assay (FRET substrate). The class given is biochemical. As to conditions: 0.2 μM enzyme, 20 μM substrate, pH 7, DMSO 2.5%. How it is done:
A continuous assay based on Förster resonance energy transfer (FRET) to measure in vitro the catalytic activity of M^pro was implemented by using the substrate (Dabcyl)KTSAVLQSGFRKME(Edans)-NH2 (Biosyntan GmbH, Berlin, Germany) The enzymatic reaction was initiated by adding substrate at 20 μM (final concentration) to the enzyme at 0.2 μM (final concentration) in a final volume of 100 μL. The reaction buffer was sodium phosphate 50 mM, pH 7, NaCl 150 mM, and DMSO 2.5%. Fluorescence emission was measured in a FluoDia T70 microplate reader (Photon Technology International, Birmingham, NJ, USA) for 20 min (excitation wavelength, 380 nm; emission wavelength, 500 nm). The initial slope of the time evolution curve of the fluorescence emission signal provided a direct quantification of the enzymatic activity.
The in vitro inhibition potency of the compounds against M^pro was assessed through the estimation of the inhibition constant, Ki, and the half-maximal inhibitory concentration, IC50, from experimental inhibition curves. Inhibition curves were obtained by measuring the enzyme activity (at fixed 0.2 μM enzyme concentration and fixed 20 μM substrate concentration) as a function of compound concentration (serial 2-fold dilution from 125 µM to 0 μM), maintaining the percentage of DMSO (2.5%) constant. The enzymatic activity was quantitated as the initial slope of the substrate fluorescence emission time evolution curve, and was plotted as a function of compound concentration. The ratio between the activity (slope) in the presence and absence of the compound provides the residual percentage of activity at a given compound concentration. Nonlinear regression analysis employing a simple inhibition model (considering inhibitor depletion due to enzyme binding) allowed us to estimate the apparent inhibition constant, Ki^app, for each compound according to Equation (1):(1) [EI]=1/2([I]T+[E]T+Kiapp−([I]T+[E]T+Kiapp)^2−4[E]T[I]T)[I]=[I]T−[EI]=1/2([I]T−[E]T−Kiapp+([I]T+[E]T+Kiapp)^2−4[E]T[I]T)v([I])/v([I]=0)=1−[EI]/[E]T=1/1+[I]/Kiapp, where [EI] is the concentration of the enzyme–inhibitor complex, [E]T and [I]T are the total concentrations of the enzyme and the inhibitor, Ki^app is the apparent inhibition constant for the inhibitors (quercetin and derivatives), [I] is the concentration of the free inhibitor, and v is the initial slope of the enzymatic activity trace at a given (free) inhibitor concentration [I] (or total inhibitor concentration [I]T). No approximation for the free inhibitor concentration (e.g., assuming to be equal to the total inhibitor concentration) was made, thus having general validity for any total enzyme and inhibitor concentration and any value of the inhibition constant (even for tight-binding inhibitors). In addition, if the inhibitor acts through a purely competitive mechanism, the previous equation can be substituted by Equation (2):(2) v([I])/v([I]=0)=1/1+[I]/Kiapp=1/1+[I]/Ki(1+[S]/Km), where Ki is the intrinsic (i.e., substrate concentration-independent) inhibition constant, Km is the Michaelis–Menten constant for the enzyme–substrate interaction, and [S] is the substrate concentration. Because Km and [S] are known, the intrinsic inhibition constant can be determined. Furthermore, approximating the free compound concentration by the total compound concentration and neglecting ligand depletion, the Ki^app in Equation (2) is equivalent to the IC50, as reported in Table 3. However, it should be emphasized that the IC50 is an assay-dependent inhibition potency index (among other parameters, it depends on the enzyme and substrate concentrations, as well as on the Km); thus, the intrinsic inhibition constant is a better inhibition potency index. Uncertainties have been reported as 95% profile likelihood asymmetric confidence intervals, as especially recommended for equilibrium constants (i.e., binding association/dissociation constants and inhibition constants).

Where two headings read alike, the source gives them in different places.

Regarding `O=c1c2ccccc2[se]n1-c1ccccc1` [ebselen], in the data set with SARS-CoV-2 [1], the “Antiviral activity observed in cell models, in words” value was “low micromolar levels”. The “M^pro half-maximal inhibitory concentration (IC50), in words” value in data set [2] is listed as “nanomolar range”.

`C[C@@H]1O[C@@H](OC[C@H]2O[C@@H](Oc3c(-c4ccc(O)c(O)c4)oc4cc(O)cc(O)c4c3=O)[C@H](O)[C@@H](O)[C@@H]2O)[C@H](O)[C@H](O)[C@H]1O` [rutin]: in data set [2], the “M^pro inhibition potency relative to quercetin, in words” value is given as “slightly lower potency”.

Take `Cc1ccc([Se]c2c(O)cc(O)c3c(=O)c(O)c(-c4ccc(O)c(O)c4)oc23)cc1` [2d, 2-(3,4-Dihydroxyphenyl)-3,5,7-trihydroxy-8-(p-tolylselanyl)-4H-chromen-4-one]: the melting point (usually the temperature of the solid-liquid transition) lay within 203 to 206 °C. Also, the “Inhibition of the virus-caused cytopathic effect (CPE)” value (shortened to “Inhibition … (CPE)”) in the data set with SARS-CoV-2 [3] (10 µM, Vero cells) is “+”. The “Inhibition … (CPE)” value with SARS-CoV-2 [3] (25 µM, Vero cells) is “+”. Besides, in the data set with SARS-CoV-2 [3] (50 µM, Vero cells), the “Inhibition … (CPE)” value is given as “+”. Also, in the data set on SARS-CoV-2 [3] (75 µM, Vero cells), the “Inhibition … (CPE)” value is on record as “+”. Moreover, in the data set on SARS-CoV-2 [3] (100 µM, Vero cells), the “Inhibition … (CPE)” value was “+”. The “morphological changes of cells in the infection model” value with SARS-CoV-2 [3] (100 µM, in half of experiments) is reported as “morphological changes were observed”. This compound also returned a maximal non-toxic concentration in the data set on SARS-CoV-2 [3] (Vero cells, Figure S3) of 100 µM. In addition, in the data set with SARS-CoV-2 [3] (tested at 100, 75, 50, 25 and 10 µM, judged at non-toxic concentrations), the “SARS-CoV-2-related CPE reduction (in words)” value is “inhibited the development of the CPE”. Moreover, in the data set on Vero cells, the “cytotoxicity on Vero cells (in words)” value is “none of the tested concentrations exhibited cytotoxicity”. In the data set with SARS-CoV-2 [4], the IC50 (commonly the concentration needed to halve the response being measured) turned out to be 8 µM and the “logIC50 of SARS-CoV-2 replication (RT-qPCR)” value is 0,8968. In the data set with SARS-CoV-2 [4] (ratio of antiviral IC50 values), the “improvement of the antiviral potency versus quercetin” value worked out at 24 fold. Also, on SARS-CoV-2 M^pro [5], the “reversibility of the interaction with M^pro” value is on record as “reversible interaction”. For the same compound, on SARS-CoV-2 M^pro [6] (equivalent to Ki^app), the IC50 was found to be 11 µM. In addition, affinity at SARS-CoV-2 M^pro [6] (intrinsic inhibition constant) was put at a Ki of 3.8 µM.

As for `O=c1c(O)c(-c2ccc(O)c(O)c2)oc2cc(O)cc(O)c12` [Quercetin 1, quercetin], the “Inhibition … (CPE)” value in the data set with SARS-CoV-2 [3] (10 µM, Vero cells) is listed as “-”; in the data set with SARS-CoV-2 [3] (25 µM, Vero cells) it was “-”; with SARS-CoV-2 [3] (50 µM, Vero cells) it was “-”; in the data set with SARS-CoV-2 [3] (75 µM, Vero cells), “-”; with SARS-CoV-2 [3] (100 µM, Vero cells), “-”; in the data set with SARS-CoV-2 [3] (200 µM, Vero cells), “+”. Also, the “Inhibition … (CPE)” value was “+” in the data set with SARS-CoV-2 [3] (250 µM, Vero cells); “+” in the data set with SARS-CoV-2 [3] (300 µM, Vero cells); “+” in the data set on SARS-CoV-2 [3] (400 µM, Vero cells); “+” in the data set on SARS-CoV-2 [3] (500 µM, Vero cells). Also, in the data set on Vero cells, the “cytotoxicity on Vero cells (in words)” value is reported as “none of the tested concentrations exhibited cytotoxicity”. Besides, in the data set with SARS-CoV-2 [4] (infected Vero cells, 2 days, nonlinear regression), the IC50 is 192 µM. Besides, in the data set on SARS-CoV-2 [4], the “logIC50 of SARS-CoV-2 replication (RT-qPCR)” value is given as 2,284. Besides, the “reversibility of the interaction with M^pro” value at SARS-CoV-2 M^pro [5] (listed as 1) is recorded as “reversible interaction”; at SARS-CoV-2 M^pro [5] (listed as quercetin), “reversible”.

(Values after article PMC8268238, “Seleno-Functionalization of Quercetin Improves the Non-Covalent Inhibition of M^pro and Its Antiviral Activity in Cells against SARS-CoV-2” (International Journal of Molecular Sciences, 2021).)
